We go through 18 compounds from patent publication US10807982B2, “Bromodomain inhibitors” (CELGENE QUANTICEL RESEARCH, INC., priority 2015, dated 2020).

One test has as its target BRD4(BD1) (Homo sapiens (Human), UniProt O60885). As to the kind of experiment: In vitro enzyme inhibition assay (BRD4 AlphaScreen, H4-tetraacetyl peptide). The test is classed as binding. The settings on record: BRD4(BD1) 2 nM, peptide 15 nM. The method, then: Determination of the IC50 for the heterocyclic derivative BRD4 inhibitors disclosed herein was performed as follows. His-tagged […] was cloned, expressed and purified to homogeneity. Filipakopoulos et al., 468 Nature 1067 (2010). BRD4 binding and inhibition was assessed by monitoring the interaction of biotinylated H4-tetraacetyl peptide (AnaSpec, H4K5/8/12/16(Ac), biotin—labeled) with the target using the AlphaScreen technology (Life Technologies). In a 384-well ProxiPlate BRD4(BD1) (2 nM final) was combined with peptide (15 nM final) in 50 mM HEPES (pH 7.3), 10 mM NaCl, 0.25 mM TCEP, 0.1% (w/v) BSA, and 0.005% (w/v) Brij-35 either in the presence of DMSO (final 0.4% DMSO) or compound dilution series in DMSO. After 20 min incubation at RT, Alpha streptavidin donor beads and Nickel Chelate acceptor beads were added to a final concentration of 5 μg/mL. After 2 hr of equilibration, plates were read on an Envision instrument and the IC50 was calculated using a four parameter non-linear curve fit.
The ability of the compounds disclosed herein to inhibit BRD4 activity was quantified and the respective IC50 value was determined.
In general terms: Bead proximity is the source of the signal in Alpha formats.

Test [1] has as its system Raji, human Burkitts lymphoma cells. As to the kind of experiment: Cell-MTS cellular proliferation assay, Raji. Type of test: cell-based. Conditions: Homo sapiens, 168 hr incubation. The method, then: (§1) A colorimetric cellular proliferation assay (Cell-MTS assay) was performed to assess the ability of the heterocyclic derivative […] inhibitors disclosed herein to effect the proliferation of established cancer cell lines.
(§2) The Cell-MTS assay is a 7-day plate-based colorimetric assay which quantifies the amount of newly generated NADH in the presence or absence of test compound. The NADH level is used for the quantification of cancer cell proliferation.
(§3) Established cancer cell lines with a variety of driving mutations were obtained from American Type Culture Collection (ATCC) and routinely passaged according to ATCC protocols. For routine assay, these cells were seeded at densities which enabled ˜90% confluence after 7 days of culture. Raji, human Burkitts lymphoma cells, (cMYC) were seeded at 15,000 cells per 96-well. HL-60, human proleukemia cells, (NRAS, p16, p53, c-Myc amplified) were seeded at 5,000 cells per 96-well. NCI-H460, human non-small cell lung cancer cells. (KRAS, PIK3CA, STLK11, p16) were seeded at 3,000 cells per 96-well. 24 hr after plating, cells received an 11 point dilution of test compound with final concentration ranges from 100 µM to 2.0 nM. Cells were incubated in the presence of compound for 168 hr at 37° C., and 5% CO2. At the end of this incubation period, 80 µL of media is removed and 20 µL of CellTiter 96® AQueous Non-Radioactive Cell Proliferation Assay solution (Promega) was added. The cells were incubated until the OD490 was >0.6. IC50 values were calculated using the IDBS XLfit software package and include background subtracted OD490 values and normalization to DMSO controls. Cellular proliferation IC50 values were uploaded and archived using the Chem Biography Platform. Table 3 provides the results of the in vitro enzyme inhibition assay experiments and the in vitro cell-based assay experiments performed with the compounds disclosed herein: […]
A general note: Tetrazolium assays rely on reduction of a dye to a coloured formazan, in cell work by metabolically active cells.

Test [2] relates to HL-60, human proleukemia cells. The test can be described thus: Cell-MTS cellular proliferation assay, HL-60. The test is classed as cell-based. The settings on record: Homo sapiens, HL-60 cells, 168 hr incubation. As to the method:
as §1, §2, §3

The subject of test [3] is NCI-H460, human non-small cell lung cancer cells. As to the kind of experiment: Cell-MTS cellular proliferation assay, NCI-H460. The test is classed as cell-based. Conditions: Homo sapiens, 168 hr incubation. The method, then:
as §1, §2, §3

Molecules are shown by their SMILES. Some results are limits rather than exact numbers.

The IC50 is the point on the concentration scale where inhibition reaches its midpoint. A higher IC50 goes with weaker potency. As for `Cc1cc(-c2cc(NS(C)(=O)=O)c3nc(C)n(Cc4ccccc4)c3c2)cn(C)c1=O` [Example 34, N-[1-benzyl-6-(1,5-dimethyl-6-oxopyridin-3-yl)-2-methylbenzimidazol-4-yl]methanesulfonamide], the IC50 at BRD4(BD1) was at most 500 nM; in test [1], at most 500 nM; in test [2] it was at most 500 nM; in test [3] it was over 5000 nM.

`Cc1cc(-c2cc(NS(C)(=O)=O)c3nc(C)n(Cc4cccc(F)c4)c3c2)cn(C)c1=O` [Example 35, N-[6-(1,5-dimethyl-6-oxopyridin-3-yl)-1-[(3-fluorophenyl)methyl]-2-methylbenzimidazol-4-yl]methanesulfonamide]: the IC50 against BRD4(BD1) is at most 500 nM; in test [1] it was at most 500 nM; in test [2], at most 500 nM; in test [3] it was 500 to 5000 nM.

As to `Cc1cc(-c2cc(NS(C)(=O)=O)c3nc(C)n(Cc4ccc(F)cc4)c3c2)cn(C)c1=O` [Example 37, N-[6-(1,5-dimethyl-6-oxopyridin-3-yl)-1-[(4-fluorophenyl)methyl]-2-methylbenzimidazol-4-yl]methanesulfonamide], the half-maximal inhibitory concentration (IC50) at BRD4(BD1) is at most 500 nM; in test [1], at most 500 nM; in test [2], at most 500 nM; in test [3], 500 to 5000 nM.

`CCS(=O)(=O)Nc1cc(-c2cn(C)c(=O)c3ccccc23)c2oc(C3CCCC3)nc2c1` [Example 53, N-[2-cyclopentyl-7-(2-methyl-1-oxoisoquinolin-4-yl)-1,3-benzoxazol-5-yl]ethanesulfonamide]: the concentration for half-maximal inhibition (IC50) was at most 500 nM against BRD4(BD1), at most 500 nM in test [1], at most 500 nM in test [2] and over 5000 nM in test [3].

Consider `Cc1cc(-c2cc(NS(C)(=O)=O)ccc2Oc2ccc(F)cc2F)c2n(c1=O)CCC2` [Example 86, N-[4-(2,4-difluorophenoxy)-3-(6-methyl-5-oxo-2,3-dihydro-1H-indolizin-8-yl)phenyl]methanesulfonamide], for which the IC50 at BRD4(BD1) was at most 500 nM; in test [1], at most 500 nM; in test [2], at most 500 nM; in test [3], over 5000 nM.

On to `CCS(=O)(=O)N1CCOc2cc(OCC3CC3)c(-c3cn(C)c(=O)c4ccccc34)cc21` [Example 49, 4-[7-(cyclopropylmethoxy)-4-ethylsulfonyl-2,3-dihydro-1,4-benzoxazin-6-yl]-2-methylisoquinolin-1-one], for which the IC50 at BRD4(BD1) was at most 500 nM; in test [1] it was at most 500 nM; in test [2], at most 500 nM; in test [3], 500 to 5000 nM.

Regarding `CCS(=O)(=O)Nc1cc(-c2cc(C)c(=O)n(C)c2)cc2c1nc(C)n2Cc1cccc(F)c1` [Example 36, N-[6-(1,5-dimethyl-6-oxopyridin-3-yl)-1-[(3-fluorophenyl)methyl]-2-methylbenzimidazol-4-yl]ethanesulfonamide], the IC50 (on BRD4(BD1); in test [1]; in test [2]; in test [3]) was at most 500 nM each time.

As to `COc1cc2c(cc1-c1cn(C)c(=O)c3ccccc13)S(=O)(=O)N(C)C2` [Example 4, 4-(5-methoxy-2-methyl-1,1-dioxo-3H-1,2-benzothiazol-6-yl)-2-methylisoquinolin-1-one], the IC50 against BRD4(BD1) is at most 500 nM; in test [1] it was 500 to 5000 nM; in test [2], at most 500 nM; in test [3] it was 500 to 5000 nM.

As to `CCS(=O)(=O)N1CCc2cc(OCC3CC3)c(-c3cc(C)c(=O)n(C)c3)cc21` [Example 16, 5-[5-(cyclopropylmethoxy)-1-ethylsulfonyl-2,3-dihydroindol-6-yl]-1,3-dimethylpyridin-2-one], the 50% inhibitory concentration (IC50) against BRD4(BD1) is at most 500 nM; in test [1], at most 500 nM; in test [2] it was at most 500 nM; in test [3], over 5000 nM.

Regarding `CCOc1nc2c(NS(C)(=O)=O)cc(-c3cc(C)c(=O)n(C)c3)cc2n1CC1CC1` [Example 72, N-[1-(cyclopropylmethyl)-6-(1,5-dimethyl-6-oxopyridin-3-yl)-2-ethoxybenzimidazol-4-yl]methanesulfonamide], the IC50 against BRD4(BD1) was at most 500 nM; in test [1], at most 500 nM; in test [2], at most 500 nM; in test [3], 500 to 5000 nM.

Regarding `CCS(=O)(=O)Nc1cc(-c2cc(C)c(=O)n(C)c2)cc2c1nnn2Cc1ccc(F)cc1` [Example 28, N-[6-(1,5-dimethyl-6-oxopyridin-3-yl)-1-[(4-fluorophenyl)methyl]benzotriazol-4-yl]ethanesulfonamide], the IC50 against BRD4(BD1) was at most 500 nM; in test [1], at most 500 nM; in test [2], at most 500 nM; in test [3] it was 500 to 5000 nM.

`Cn1cc(-c2cc3c(cc2OCC2CC2)CCN3S(C)(=O)=O)c2ccccc2c1=O` [Example 13, 4-[5-(cyclopropylmethoxy)-1-methylsulfonyl-2,3-dihydroindol-6-yl]-2-methylisoquinolin-1-one]: the concentration for half-maximal inhibition (IC50) was at most 500 nM against BRD4(BD1), at most 500 nM in test [1], at most 500 nM in test [2] and 500 to 5000 nM in test [3].

In the case of `Cc1cc(-c2cc(NS(=O)(=O)C(C)C)cc3nc(C4CC4)oc23)cn(C)c1=O` [Example 51, N-[2-cyclopropyl-7-(1,5-dimethyl-6-oxopyridin-3-yl)-1,3-benzoxazol-5-yl]propane-2-sulfonamide], the IC50 against BRD4(BD1) was at most 500 nM; in test [1] it was 500 to 5000 nM; in test [2] it was at most 500 nM; in test [3], over 5000 nM.

As for `CCS(=O)(=O)Nc1cc(-c2cc(C)c(=O)n(C)c2)cc2c1cnn2Cc1ccccc1` [Example 42, N-[1-benzyl-6-(1,5-dimethyl-6-oxopyridin-3-yl)indazol-4-yl]ethanesulfonamide], the 50% inhibitory concentration (IC50) on BRD4(BD1) is at most 500 nM; in test [1] it was at most 500 nM; in test [2] it was at most 500 nM; in test [3] it was 500 to 5000 nM.

As to `Cc1cc(-c2cc(NS(C)(=O)=O)c3nc(C)n([C@@H](C)c4ccccc4)c3c2)cn(C)c1=O` [Example 44, N-[6-(1,5-dimethyl-6-oxopyridin-3-yl)-2-methyl-1-[(1S)-(1-phenylethyl)]benzimidazol-4-yl]methanesulfonamide], the IC50 against BRD4(BD1) is at most 500 nM; in test [1] it was at most 500 nM; in test [2], at most 500 nM; in test [3], 500 to 5000 nM.

As for `Cc1cc(-c2cc(NS(C)(=O)=O)c3ncn(Cc4cccc(F)c4)c3c2)cn(C)c1=O` [Example 32, N-[6-(1,5-dimethyl-6-oxopyridin-3-yl)-1-[(3-fluorophenyl)methyl]benzimidazol-4-yl]methanesulfonamide], the concentration for half-maximal inhibition (IC50) is at most 500 nM at BRD4(BD1), at most 500 nM in test [1], at most 500 nM in test [2] and 500 to 5000 nM in test [3].

As for `Cc1cc(-c2cc3c(nc(C)n3Cc3ccc(F)cc3)c(NS(C)(=O)=O)n2)cn(C)c1=O` [Example 60, N-[6-(1,5-dimethyl-6-oxopyridin-3-yl)-1-[(4-fluorophenyl)methyl]-2-methylimidazo[4,5-c]pyridin-4-yl]methanesulfonamide], the half-maximal inhibitory concentration (IC50) was at most 500 nM against BRD4(BD1), at most 500 nM in test [1], at most 500 nM in test [2] and over 5000 nM in test [3].

`COc1cc(-c2cc(NS(C)(=O)=O)c3c(F)nn(Cc4ccc(F)cc4)c3c2)cn(C)c1=O` [Example 65, N-[3-fluoro-1-[(4-fluorophenyl)methyl]-6-(5-methoxy-1-methyl-6-oxopyridin-3-yl)indazol-4-yl]methanesulfonamide]: the IC50 against BRD4(BD1) is at most 500 nM; in test [1] it was at most 500 nM; in test [2] it was at most 500 nM; in test [3], over 5000 nM.
